Assay results published in ChEMBL document CHEMBL1201862, “PubChem BioAssay data set” (2004).
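Exposure lasted 48 hours, with cells grown in 96-well plates and compounds tested at five concentrations. GI50: concentration for 50% inhibition of growth.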 Active and inactive are the calls of the source. No stated cut-off is given here; in the data, active = GI50 up to about 1.1 µM and inactive = higher.

Columns and labels:
Assay in all cases: growth of human tumour cells (NCI), 48 h
[1] = test system: HCT-116
[2] = test system: NCI-H226
[3] = test system: PC-3
[4] = test system: SF-268
[5] = test system: MDA-MB-435
[6] = test system: U-251
[7] = test system: ACHN
[8] = test system: COLO 205
[9] = test system: CCRF-CEM
[10] = test system: SK-MEL-28
[11] = test system: A549
[12] = test system: 786-0
[13] = test system: HL-60
[14] = test system: NCI/ADR-RES
[15] = test system: MDA-MB-231
[16] = test system: DU-145
[17] = test system: M14
[18] = test system: NCI-H460
[19] = test system: RPMI-8226
[20] = test system: HCC 2998

`COC(=O)C1(C(=O)OC)CC2=C(S(=O)(=O)c3ccccc3)C[C@H](C#N)[C@H]2C1` was tested, and the GI50 [1] was > 100 µM (inactive), the GI50 [2] was > 100 µM (inactive) and the GI50 [3] was > 100 µM (inactive). The GI50 [4] was > 100 µM (inactive), the GI50 [5] was 49.1 µM (inactive) and the GI50 [6] was > 100 µM (inactive). For the same compound, the GI50 [7] was > 100 µM (inactive), the GI50 [8] was 68.5 µM (inactive) and the GI50 [9] was > 100 µM (inactive). The GI50 [10] was > 100 µM (inactive), the GI50 [11] was > 100 µM (inactive) and the GI50 [12] was > 100 µM (inactive). For the same compound, the GI50 [13] was > 100 µM (inactive), the GI50 [14] was > 100 µM (inactive) and the GI50 [15] was > 100 µM (inactive). For the same compound, the GI50 [16] was > 100 µM (inactive) and the GI50 [17] was > 100 µM (inactive).
`CCC1([N+](=O)[O-])CN(N=O)C1` was tested, and the GI50 [1] was > 100 µM (inactive), the GI50 [2] was > 100 µM (inactive) and the GI50 [3] was > 100 µM (inactive). The GI50 [4] was > 100 µM (inactive), the GI50 [5] was > 100 µM (inactive) and the GI50 [6] was > 100 µM (inactive). For the same compound, the GI50 [7] was > 100 µM (inactive), the GI50 [8] was > 100 µM (inactive) and the GI50 [9] was > 100 µM (inactive). The GI50 [18] was > 100 µM (inactive), the GI50 [10] was > 100 µM (inactive) and the GI50 [11] was > 100 µM (inactive). The GI50 [12] was > 100 µM (inactive), the GI50 [13] was > 100 µM (inactive) and the GI50 [14] was > 100 µM (inactive). For the same compound, the GI50 [15] was > 100 µM (inactive), the GI50 [19] was > 100 µM (inactive) and the GI50 [16] was > 100 µM (inactive). For the same compound, the GI50 [17] was > 100 µM (inactive).
For `CC[C@@]1(O)C(=O)OCc2c1cc1n(c2=O)Cc2cc3cc(O)ccc3nc2-1` [HYDROXYCAMPTOTHECIN], the GI50 [3] was 0.084 µM (active), the GI50 [5] was 0.0453 µM (active) and the GI50 [6] was < 0.0075 µM (active). The GI50 [7] was < 0.0116 µM (active), the GI50 [8] was 0.125 µM (active) and the GI50 [9] was < 0.0075 µM (active). For the same compound, the GI50 [11] was 0.0506 µM (active), the GI50 [12] was 0.0241 µM (active) and the GI50 [13] was 0.0161 µM (active). For the same compound, the GI50 [14] was 0.0232 µM (active), the GI50 [15] was 0.867 µM (active) and the GI50 [16] was 0.01 µM (active). The GI50 [17] was 0.0336 µM (active).
In the case of `CCOC(=O)c1ccc(-c2cc(C)[nH]n2)[nH]1`, the GI50 [1] is reported as > 100 µM (inactive), the GI50 [2] is reported as > 100 µM (inactive) and the GI50 [3] is reported as > 100 µM (inactive). For the same compound, the GI50 [4] was > 100 µM (inactive), the GI50 [5] was > 100 µM (inactive) and the GI50 [6] was > 100 µM (inactive). For the same compound, the GI50 [7] was > 100 µM (inactive), the GI50 [8] was > 100 µM (inactive) and the GI50 [9] was > 100 µM (inactive). For the same compound, the GI50 [18] was > 100 µM (inactive), the GI50 [10] was > 100 µM (inactive) and the GI50 [11] was > 100 µM (inactive). For the same compound, the GI50 [12] was > 100 µM (inactive), the GI50 [13] was 63.5 µM (inactive) and the GI50 [14] was > 100 µM (inactive). The GI50 [15] was > 100 µM (inactive), the GI50 [19] was > 100 µM (inactive) and the GI50 [16] was > 100 µM (inactive). For the same compound, the GI50 [17] was > 100 µM (inactive).
With `O=Nc1c(-c2cccc([N+](=O)[O-])c2)nc2cnccn12` the GI50 [1] was 4.68 µM (inactive), the GI50 [2] was 18.5 µM (inactive) and the GI50 [3] was 24.9 µM (inactive). The GI50 [4] was 25.9 µM (inactive), the GI50 [5] was 20.1 µM (inactive) and the GI50 [6] was 20.4 µM (inactive). The GI50 [7] was 3.63 µM (inactive), the GI50 [8] was 20 µM (inactive) and the GI50 [9] was 0.14 µM (active). The GI50 [18] was 33.9 µM (inactive), the GI50 [10] was 21.5 µM (inactive) and the GI50 [11] was 29.5 µM (inactive). For the same compound, the GI50 [12] was 16 µM (inactive), the GI50 [13] was 34.2 µM (inactive) and the GI50 [14] was 21.4 µM (inactive). For the same compound, the GI50 [15] was 13.8 µM (inactive), the GI50 [16] was 16.4 µM (inactive) and the GI50 [17] was 18.7 µM (inactive).
`C/C(=N\Nc1nc2ccccc2o1)c1cc2ccccc2cn1` was tested, and the GI50 [1] was < 0.01 µM (active), the GI50 [2] was < 0.0208 µM (active) and the GI50 [3] was < 0.01 µM (active). For the same compound, the GI50 [4] was < 0.0188 µM (active), the GI50 [5] was 0.202 µM (active) and the GI50 [6] was < 0.0215 µM (active). For the same compound, the GI50 [7] was < 0.01 µM (active), the GI50 [8] was < 0.01 µM (active) and the GI50 [9] was < 0.01 µM (active). For the same compound, the GI50 [18] was 0.0311 µM (active), the GI50 [10] was 0.364 µM (active) and the GI50 [11] was 0.054 µM (active). The GI50 [12] was < 0.01 µM (active), the GI50 [13] was < 0.01 µM (active) and the GI50 [14] was < 0.01 µM (active). The GI50 [15] was < 0.01 µM (active), the GI50 [19] was < 0.0235 µM (active) and the GI50 [16] was 0.349 µM (active). The GI50 [17] was < 0.01 µM (active).
For `CC(=O)NC1CONC1=O` (configuration not stated), the GI50 [1] was > 100 µM (inactive), the GI50 [2] was > 100 µM (inactive) and the GI50 [3] was > 100 µM (inactive). The GI50 [4] was > 100 µM (inactive), the GI50 [5] was > 100 µM (inactive) and the GI50 [6] was > 100 µM (inactive). For the same compound, the GI50 [7] was > 100 µM (inactive), the GI50 [8] was > 100 µM (inactive) and the GI50 [9] was > 100 µM (inactive). The GI50 [18] was > 100 µM (inactive), the GI50 [10] was > 100 µM (inactive) and the GI50 [11] was > 100 µM (inactive). For the same compound, the GI50 [12] was > 100 µM (inactive), the GI50 [13] was > 100 µM (inactive) and the GI50 [14] was > 100 µM (inactive). For the same compound, the GI50 [15] was > 100 µM (inactive), the GI50 [19] was > 100 µM (inactive) and the GI50 [16] was > 100 µM (inactive). For the same compound, the GI50 [17] was > 100 µM (inactive).
For `CCOC(=O)c1c(C)n(C)c2c1cc(O)c1[nH]c3c(c12)CCCC3`, the GI50 [1] was 17.9 µM (inactive), the GI50 [3] was 18.3 µM (inactive) and the GI50 [4] was 2 µM (inactive). For the same compound, the GI50 [5] was 13.4 µM (inactive), the GI50 [6] was 18.2 µM (inactive) and the GI50 [7] was 27.4 µM (inactive). For the same compound, the GI50 [8] was 10.8 µM (inactive), the GI50 [9] was 20.3 µM (inactive) and the GI50 [18] was 20.5 µM (inactive). The GI50 [10] was 17.5 µM (inactive), the GI50 [11] was 18 µM (inactive) and the GI50 [12] was 15.6 µM (inactive). The GI50 [13] was 21.6 µM (inactive), the GI50 [14] was 17.9 µM (inactive) and the GI50 [15] was 17.1 µM (inactive). The GI50 [19] was 3.93 µM (inactive), the GI50 [16] was 22.8 µM (inactive) and the GI50 [17] was 13.2 µM (inactive).
`O=c1c2cc3c(=O)n4c(cc(-c5ccccc5)c5cc(Cl)ccc54)nc3cc2nc2cc(-c3ccccc3)c3cc(Cl)ccc3n12` was tested, and the GI50 [1] was > 100 µM (inactive), the GI50 [2] was > 100 µM (inactive) and the GI50 [3] was > 100 µM (inactive). The GI50 [4] was > 100 µM (inactive), the GI50 [5] was > 100 µM (inactive) and the GI50 [6] was 52.4 µM (inactive). The GI50 [20] was > 100 µM (inactive), the GI50 [7] was 76.6 µM (inactive) and the GI50 [8] was > 100 µM (inactive). The GI50 [9] was > 100 µM (inactive), the GI50 [18] was > 100 µM (inactive) and the GI50 [10] was > 100 µM (inactive). The GI50 [11] was > 100 µM (inactive), the GI50 [12] was 64.1 µM (inactive) and the GI50 [14] was > 100 µM (inactive). The GI50 [15] was 39.4 µM (inactive), the GI50 [19] was > 100 µM (inactive) and the GI50 [16] was > 100 µM (inactive). The GI50 [17] was > 100 µM (inactive).
With `OCC1(CNc2cc(Cl)ncn2)CCC1` the GI50 [1] was > 100 µM (inactive), the GI50 [2] was > 100 µM (inactive) and the GI50 [3] was > 100 µM (inactive). The GI50 [4] was > 100 µM (inactive), the GI50 [5] was > 100 µM (inactive) and the GI50 [6] was > 100 µM (inactive). The GI50 [7] was > 100 µM (inactive), the GI50 [8] was > 100 µM (inactive) and the GI50 [9] was > 100 µM (inactive). For the same compound, the GI50 [18] was > 100 µM (inactive), the GI50 [10] was > 100 µM (inactive) and the GI50 [11] was > 100 µM (inactive). The GI50 [12] was > 100 µM (inactive), the GI50 [13] was > 100 µM (inactive) and the GI50 [14] was > 100 µM (inactive). The GI50 [15] was > 100 µM (inactive), the GI50 [19] was > 100 µM (inactive) and the GI50 [16] was > 100 µM (inactive).
With `COc1cc2c(cc1OCCCCN1CCN(CCCCOc3cc4c(cc3OC)C(=O)N3CCC[C@H]3C=N4)CC1)N=C[C@@H]1CCCN1C2=O` the GI50 [1] was 0.0216 µM (active), the GI50 [2] was < 0.01 µM (active) and the GI50 [3] was 0.0873 µM (active). For the same compound, the GI50 [4] was < 0.0289 µM (active), the GI50 [5] was 0.0508 µM (active) and the GI50 [6] was 0.0167 µM (active). For the same compound, the GI50 [7] was 0.0448 µM (active), the GI50 [8] was 0.0158 µM (active) and the GI50 [18] was 0.0234 µM (active). The GI50 [10] was 0.0206 µM (active), the GI50 [11] was 0.0923 µM (active) and the GI50 [12] was < 0.014 µM (active). The GI50 [13] was < 0.01 µM (active), the GI50 [14] was 1.94 µM (inactive) and the GI50 [15] was 0.0378 µM (active). The GI50 [19] was < 0.0125 µM (active), the GI50 [16] was 0.0361 µM (active) and the GI50 [17] was 0.02 µM (active).
